Laboratory results reported in US9988371B2, “Benzimidazole analogues and related methods” (The Arizona Board of Regents, on Behalf of the University …, priority 2014, dated 2018).

Test system: Ba/F3 cells transfected by RET/PTC3 (NCOA4-RET)
Assay: IL-3-independent proliferation of Ba/F3 RET/PTC3 cells
Assay type: cell-based, murine
Conditions: Mus musculus, BaF3
Description: FIG. 6: Activity of Pz-1 on NCOA4-RET oncogene-driven IL-3-independent proliferation of murine Ba/F3 cells. […] Ba/F3 and Ba/F3 NCOA4-RET cells were incubated with vehicle (NT) or the indicated concentration of Pz-1 in complete medium and counted at different time points. Data are the mean±SD of one experiment performed in triplicate. Murine interleukin-3 (IL-3) dependent pro-B Ba/F3 cells were from ATCC. Ba/F3 cells stably expressing NCOA4-RET (RET/PTC3) protein were generated by transfecting long isoform (RET-51) of NCOA4-RET by electroporation. Parental and Ba/F3-NCOA4-RET cells were cultured in RPMI 1640 with 10% FBS; parental cells required also 10 ng/ml IL-3. IC50 doses (with Confidence Intervals) are indicated.
Nthy-ory-3-1 and TTcells were seeded in 60-mm dishes. Cells were kept in 2% (Nthy-ori-3-1) or 10% (TT) fetal calf serum. One day after plating, different concentrations of Pz-1 or vehicle were added to the medium and changed every 2-3 days. Cells were counted every 2-3 days. […] Parental and RET/PTC-expressing Ba/F3 were kept in 10% fetal calf serum in 6-multi wells and counted every day for 4 consecutive days, changing media every 2 days. […] IC50 doses were calculated through a curve fitting analysis from the last day of growth curves using the PRISM software program (Graphpad Software Inc). […]

Cn1cc(-c2ccc3c(c2)ncn3-c2ccc(CC(=O)Nc3cc(C(C)(C)C)on3)cc2)cn1 [Pz-1, N-(5-(tert-butyl)isoxazol-3-yl)-2-(4-(5-(1-methyl-1H-pyrazol-4-yl)-1H-benzo[d]imidazol-1-yl)phenyl)acetamide]
IC50: 0.34 nM
